Test results reported in patent US10034839B2, “Compositions and methods for delivery of kinase inhibiting peptides” (PURDUE RESEARCH FOUNDATION, priority 2012, dated 2018).

Assays:
[1] = KAFAK degradability assay in serum; assay type: in vitro ADME; conditions: for recovery at 12 hours / Integral of KAFAK Peak between 30-31% Acetonitrile: 12 hours at 37° C., then 24 hours at 4° C. (nanoparticles: purify & release in 2x salt)
Method: Samples tested include: peptide alone, serum alone, peptide in serum, and KAFAK loaded 5% AMPS nanoparticles in serum. Each sample volume also contained 0.5× PBS except when stated. Samples containing peptide initially contained 0.5 mg of peptide alone or 1.12 mg of loaded 5% AMPS particles with an equivalent amount of 0.5 mg peptide. Samples with serum were 0.5× serum and 0.5×PBS. Samples without serum were 0.5×PBS and 0.5× MilliQ water. Peptide alone, serum alone, peptide in serum, loaded nanoparticles alone, and loaded nanoparticles in serum were incubated for 12 hours at 37° C. on a shaker. After the 12 hour incubation, samples not containing nanoparticles were placed in the fridge at 4° C. for 24 hours before evaluation. Samples containing nanoparticles were centrifuged for 2 hours at room temperature at 30,000 rpm in an Optima L-90k Ultracentrifuge (Beckman Coulter, Indianapolis, Ind., USA). The nanoparticle pellet was briefly washed with MilliQ water and then resuspended in solution of 0.5×PBS and 0.5× MilliQ water. Samples were then placed in the fridge for 24 hours. Before the 24 hour nanoparticle sample was placed in the fridge to incubate, but after the pellet was dissolved, an additional amount of 0.257 molar concentration of NaCl was added to induce peptide release. This brought the final NaCl concentration to 0.342 molar or twice normal salt concentration in PBS. Additional NaCl was added to facilitate total release by introducing additional counter ions. Samples were evaluated by reverse phase chromotography on a FPLC (AKTA Explorer, GE Healthcare, Pittsburgh Pa., USA) with a 22/250 C18 prep-scale column (Grace Davidson, Deerfield, Ill., USA) and an acetonitrile gradient with 0.1% trifluoroacetic acid. Peptide was quantified by integrating the area under the peak of the FPLC. Peptide molecular weight was confirmed by time of flight MALDI mass spectrometry with a 4800 Plus MALDI TOF/TOF Analyzer (Applied Biosystems, Foster City, Calif., USA).

[2] = test system: IL-6 production in cartilage plugs; assay: IL-6 ELISA in bovine knee ex vivo inflammatory model; conditions: IL-1β stimulated aggrecan depleted plugs, treatment every two days
Method: Cartilage plugs were obtained from three month old bovine knee joints obtained from an abattoir within 24 hours of slaughter (Dutch Valley Veal, South Holland, Ill., USA). The plugs were removed from the load bearing region of the femoral condyle using a 3 mm diameter cork borer. They were then washed three times in serum free medium and equilibrated for three days in 5% FBS supplemented media. Osteoarthritis (OA)-like conditions were simulated by removal of native aggrecan using a previously described protocol. Briefly, plugs were treated with 0.5% (w/v) trypsin in HBSS for 3 hours at 37° C. After trypsin treatment plugs were washed three times in HBSS and incubated with 20% FBS to inactivate residual trypsin activity. Inflammation was initiated in the plugs by treating with 20 ng/mL II-1β. Nanoparticle treatments as specified in Table 1, were added after day two of culture. Fresh IL-1β and nanoparticles were added every two days for an eight day culture period. Media aliquots were collected and stored in −80° C. till further analysis.
IL-6 production was determined with a bovine IL-6 ELISA development kit (Thermo Scientific, Rockford, Ill., USA). Capture antibody was coated overnight onto Nunc MaxiSorp 96-well plates. […] The plate was read on absorbance plate reader at 450 nm with a correction at 550 nm. […]

[3] = previously reported; cited from earlier work
THP-1 cells = conditions: THP1; corresponds to 60 μg dose of loaded particles; cited from earlier work
[4] = test system: citrated bovine whole blood; assay: Activated partial thromboplastin time (whole blood coagulation time); conditions: for Whole Blood Coagulation Time (s) Average (n = 3): nanoparticles 1.5 mg/ml final concentration in blood, collagen 6 mg/ml, heparin .001 mg/ml; for effect on coagulation: whole blood, nanoparticles 1.5 mg/ml
Method: Activated partial thromboplastin time (aPTT) was measured using a Hemochron® Response whole blood coagulation system. 2 ml citrated bovine whole blood and 200 μL nanoparticles in phosphate buffered saline (PBS) pH 7.4 (1.5 mg/ml final concentration in blood) were added to Hemochron® tubes containing colloidal kaolin activating agent and 0.02% thimerosal preservative agent. PBS was calcium and magnesium free. The tubes were then measured and aPTT was recorded. The aPTT for each sample was measured in triplicate. […] Louis, Mo., USA). Measurements with heparin were stopped after 1000 seconds.
As part of a preliminary assessment of utilizing poly(NIPAm-MBA-AMPS) as a blood contacting drug delivery vehicle, whole blood studies were done to determine the hemocompatibility of this system.

blood = assay: Hemolysis assay ASTM F756; assay type: cell-based; conditions: nanoparticles 1.5 mg/ml, 37° C., 3 hours; Triton X-100 .01% by volume
Method: After 1000 seconds, experiments in the presence of heparin were stopped due to lack of clotting. Hemolytic assay ASTM standard protocol F756 was used to check if hemolysis occurred upon the addition of poly(NIPAm-MBA-AMPS) to the blood.
Hemolysis assays were performed following ASTM F756 with a BioSpec-1601 spectrophotometer (Shimadzu, Columbia, Md., USA). Determination of total blood hemoglobin was accomplished by using Drabkin's reagent and measuring the absorbance of free hemoglobin in solution at 540 nm. The total blood hemoglobin concentration was used to adjust the hemoglobin content of the blood sample to 10 mg±1 mg by adding blood and an equivalent amount of IX PBS solution. Percent hemolysis was normalized by dividing total hemolysis determined by a 0.01% v/v of Triton X-100, subtracting the absorbance of blood only, and setting absorbance of PBS to zero. Blood, 1 ml, was incubated with 100 μl of a 1.5 mg/ml solution of the nanoparticles in PBS at 37° C. for three hours under gentle shaking. After three hours samples were centrifuged at 750 g for 15 minutes. Supernatant was removed, added 1:1 to equivalent volume of Drabkins reagent, and incubated for 15 minutes before measurement. Absorbance measurements at 540 nm were then recorded using a spectrophotometer.

Q: Which results are given for `CC(C)C[C@H](NC(=O)[C@H](C)NC(=O)[C@H](CCCCN)NC(=O)[C@H](CCCNC(=N)N)NC(=O)[C@H](Cc1ccc(O)cc1)NC(=O)[C@H](CC(C)C)NC(=O)[C@H](CCCNC(=N)N)NC(=O)[C@H](C)NC(=O)[C@H](C)NC(=O)[C@H](CC(C)C)NC(=O)[C@H](CCCCN)NC(=O)[C@H](C)NC(=O)[C@H](Cc1ccccc1)NC(=O)[C@H](C)NC(=O)[C@@H](N)CCCCN)C(=O)N[C@@H](C)C(=O)N[C@@H](CCCNC(=N)N)C(=O)N[C@@H](CCC(N)=O)C(=O)N[C@@H](CC(C)C)C(=O)NCC(=O)N[C@H](C(=O)N[C@@H](C)C(=O)N[C@@H](C)C(N)=O)C(C)C` [KAFAK]?
A: recovery at 12 hours ([1]; 0.5× PBS and 0.5× MilliQ water (without serum), without serum): 100%; Integral of KAFAK Peak between 30-31% Acetonitrile ([1]; in serum): 0 mAU * ml; recovery at 12 hours ([1]; in serum): 0%; time within which KAFAK peptide degraded ([1]; serum, 37° C., without a carrier): ≤ 12 h; Integral of KAFAK Peak between 30-31% Acetonitrile ([1]; without serum): 593.3 mAU * ml; effect on IL-6 production [2]: lack of therapeutic activity; serum half-life [3]: less than 12 hours; upper toxicity limit (THP-1 cells): 30 µM

Q: What does the source list for Collagen?
A: Whole Blood Coagulation Time (s) Average (n = 3) [4]: 26 s; effect on coagulation [4]: induce clotting

Q: With Heparin as the molecule, how does the “Whole Blood Coagulation Time (s) Average (n = 3)” value [4] read?
A: >1000 s

Q: What about the “effect on coagulation” value [4] of the same molecule?
A: inhibit coagulation

Q: With Triton X-100 as the molecule, how does the “Normalized Whole Blood % Hemolysis Average (n = 3)” value (blood) read?
A: 100%
